In patent US9850283B2, “Macrocyclic inhibitors of the PD-1/PD-L1 and CD80(B7-1)/PD-L1 protein/protein interactions” (BRISTOL-MYERS SQUIBB COMPANY, priority 2013, dated 2017):
pIC50: −log10 of the molar value. Where two headings read alike, the source gives them in different places. Positions of bridges follow the written chain, without caps; N, C: chain ends. Non-standard residues stand in square brackets, D forms with d. Residues, ends and D or L forms follow the SMILES beside them. Ala(benzothiazol-2-yl) = N[C@@H](Cc1nc2ccccc2s1)C(=O)O; Phe(3,4-(OMe)2) = COc1ccc(C[C@H](N)C(=O)O)cc1OC; Phe(3-CF3) = N[C@@H](Cc1cccc(C(F)(F)F)c1)C(=O)O; Phe(2,4-Cl2) = N[C@@H](Cc1ccc(Cl)cc1Cl)C(=O)O; Bip = N[C@@H](Cc1ccc(-c2ccccc2)cc1)C(=O)O; Phe(3-OMe) = COc1cccc(C[C@H](N)C(=O)O)c1; Phe(4-Cl) = N[C@@H](Cc1ccc(Cl)cc1)C(=O)O; NMeF = CN[C@@H](Cc1ccccc1)C(=O)O; NMeNle = CCCC[C@H](NC)C(=O)O; dNMeA = CN[C@H](C)C(=O)O; Sar = CNCC(=O)O

Columns and labels:
Human PD-L1/PD-1 = target: T1, Human PD-L1/PD-1 (Homo sapiens, UniProt Q9NZQ7); experiment: HTRF PD-1-Ig/PD-L1-His binding assay (human PD-L1)
T1 construct: made in house; host or cells: HEK293T
Outline: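 Readout: time-resolved FRET between Eu cryptate-labeled anti-Ig (1 nM final) and APC-labeled anti-His (20 nM final) antibodies. These detect interaction of Fc-fused PD-1 with His-tagged human PD-L1 in dPBS containing 0.1% BSA and 0.05% Tween-20.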

[1] = target: T2, LK35.2-hPD-L1 cells / PE-labeled PD-1-Ig (Homo sapiens, UniProt Q9NZQ7); experiment: LK35.2-hPD-L1 cell binding high-content screening assay; type: cell-based; settings: cell binding assay, cell line not given
T2 construct: expressed in transfected cells; host or cells: LK35.2 mouse B cell line
Outline: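 Binding of PE-conjugated human PD-1-Ig (1 nM final) to human PD-L1 stably expressed on a mouse B-cell line (LK35.2) was measured by high-content imaging after washes. Compound and labeled PD-1-Ig were co-incubated 1 h at 37 °C with cells in RPMI/10% FCS.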

[2] = cluster symbol, read-out: HTRF IC50 cluster
[3] = cluster symbol, read-out: CBA IC50 cluster
[4] = value given instead of cluster, read-out: HTRF IC50 value
[5] = value given instead of cluster, read-out: CBA IC50 value

T2 sequence (Q9NZQ7 19-290): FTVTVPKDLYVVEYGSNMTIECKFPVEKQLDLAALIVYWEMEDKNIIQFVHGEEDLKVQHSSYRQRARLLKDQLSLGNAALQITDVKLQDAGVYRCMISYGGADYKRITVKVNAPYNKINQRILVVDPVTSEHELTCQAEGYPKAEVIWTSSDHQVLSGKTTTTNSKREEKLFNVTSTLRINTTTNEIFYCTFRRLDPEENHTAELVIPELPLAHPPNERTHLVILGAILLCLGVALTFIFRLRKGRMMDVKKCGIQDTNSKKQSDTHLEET
T1 sequence (Q9NZQ7 with tags, fused parts or gaps): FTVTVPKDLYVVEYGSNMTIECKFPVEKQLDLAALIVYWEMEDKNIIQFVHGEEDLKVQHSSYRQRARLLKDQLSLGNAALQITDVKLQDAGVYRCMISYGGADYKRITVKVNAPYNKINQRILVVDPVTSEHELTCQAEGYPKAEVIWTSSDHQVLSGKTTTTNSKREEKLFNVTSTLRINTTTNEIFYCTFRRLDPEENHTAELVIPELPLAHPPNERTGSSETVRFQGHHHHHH

SMILES	pIC50 (Human PD-L1/PD-1; [2])	pIC50 [1, 3]	pIC50 (Human PD-L1/PD-1; [4])	pIC50 [1, 5]
CCCC[C@H]1C(=O)N(C)CC(=O)N[C@@H](CC(=O)O)C(=O)N[C@@H](C(C)C)C(=O)N(C)[C@@H](Cc2ccccc2)C(=O)N[C@@H](Cc2ccc(O)cc2)C(=O)N(C)CC(=O)N[C@@H](Cc2c[nH]c3ccccc23)C(=O)N[C@@H](Cc2ccc(OC)c(OC)c2)C(=O)N[C@@H](CC(C)C)C(=O)N[C@H](C(=O)NCC(N)=O)CSCC(=O)N[C@@H](Cc2ccccc2)C(=O)N(C)[C@@H](Cc2ccccc2)C(=O)N1C [Example 3541] ({CH2CO}-F[NMeF][NMeNle][Sar]DV[NMeF]Y[Sar]W[Phe(3,4-(OMe)2)]LCG-NH2; thioether N-13)	< 7.52	< 7.13		
CCCC[C@H]1C(=O)N(C)CC(=O)N[C@@H](CC(=O)O)C(=O)N[C@@H](C(C)C)C(=O)N(C)[C@@H](Cc2ccccc2)C(=O)N[C@@H](CCCNC(=N)N)C(=O)N(C)CC(=O)N[C@@H](Cc2c[nH]c3ccccc23)C(=O)N[C@@H](Cc2ccc(O)cc2)C(=O)N[C@@H](CCC(=O)O)C(=O)N[C@H](C(=O)NCC(N)=O)CSCC(=O)N[C@@H](Cc2ccccc2)C(=O)N(C)[C@@H](Cc2ccccc2)C(=O)N1C [Example 3542] (HELM PEPTIDE1{[O=C(C[*:3])[*:2]].F.[meF].[CCCC[C@@H](C(=O)[*:2])N(C)[*:1]].[Sar].D.V.[meF].R.[Sar].W.Y.E.C.G.[am]}$PEPTIDE1,PEPTIDE1,1:R3-14:R3$$$V2.0)	7.52 to 8.17	7.14 to 8.32		
CCCC[C@H]1C(=O)N(C)CC(=O)N[C@@H](CC(=O)O)C(=O)N[C@@H](Cc2ccccc2)C(=O)N(C)[C@@H](Cc2ccccc2)C(=O)N[C@@H](Cc2ccc(O)cc2)C(=O)N(C)CC(=O)N[C@@H](Cc2c[nH]c3ccccc23)C(=O)N[C@@H](Cc2ccc(O)cc2)C(=O)N[C@@H](CC(C)C)C(=O)N[C@H](C(=O)NCC(N)=O)CSCC(=O)N[C@@H](Cc2ccccc2)C(=O)N(C)[C@@H](Cc2ccccc2)C(=O)N1C [Example 3543] (HELM PEPTIDE1{[O=C(C[*:3])[*:2]].F.[meF].[CCCC[C@@H](C(=O)[*:2])N(C)[*:1]].[Sar].D.F.[meF].Y.[Sar].W.Y.L.C.G.[am]}$PEPTIDE1,PEPTIDE1,1:R3-14:R3$$$V2.0)	< 7.52	< 7.13		
CCCC[C@H]1C(=O)N(C)CC(=O)N[C@@H](CC(=O)O)C(=O)N[C@@H](C(C)C)C(=O)N(C)[C@@H](Cc2ccccc2)C(=O)N[C@@H](Cc2ccc(O)cc2)C(=O)N(C)CC(=O)N[C@@H](Cc2c[nH]c3ccccc23)C(=O)N[C@@H](Cc2ccc(-c3ccccc3)cc2)C(=O)N[C@@H](CC(C)C)C(=O)N[C@H](C(=O)NCC(N)=O)CSCC(=O)N[C@@H](Cc2ccccc2)C(=O)N(C)[C@@H](Cc2ccccc2)C(=O)N1C [Example 3547] ({CH2CO}-F[NMeF][NMeNle][Sar]DV[NMeF]Y[Sar]W[Bip]LCG-NH2; thioether N-13)	< 7.52	< 7.13		
CCCC[C@H]1C(=O)N(C)CC(=O)N[C@@H](CC(=O)O)C(=O)N[C@@H](C(C)C)C(=O)N(C)[C@@H](Cc2ccccc2)C(=O)N[C@@H](Cc2ccc(O)cc2)C(=O)N(C)[C@H](C)C(=O)N[C@@H](Cc2c[nH]c3ccccc23)C(=O)N[C@@H](Cc2ccc(O)cc2)C(=O)N[C@@H](CC(C)C)C(=O)N[C@H](C(=O)NCC(N)=O)CSCC(=O)N[C@@H](Cc2ccccc2)C(=O)N(C)[C@@H](Cc2ccccc2)C(=O)N1C [Example 3551] ({CH2CO}-F[NMeF][NMeNle][Sar]DV[NMeF]Y[dNMeA]WYLCG-NH2; thioether N-13)	7.52 to 8.17	7.14 to 8.32		
CCCC[C@H]1C(=O)N[C@H](CC(=O)O)C(=O)N[C@@H](CC(=O)O)C(=O)N[C@@H](C(C)C)C(=O)N(C)[C@@H](Cc2ccccc2)C(=O)N[C@@H](Cc2ccc(O)cc2)C(=O)N(C)CC(=O)N[C@@H](Cc2c[nH]c3ccccc23)C(=O)N[C@@H](Cc2ccc(O)cc2)C(=O)N[C@@H](CC(C)C)C(=O)N[C@H](C(=O)NCC(N)=O)CSCC(=O)N[C@@H](Cc2ccccc2)C(=O)N(C)[C@@H](Cc2ccccc2)C(=O)N1C [Example 3552] (HELM PEPTIDE1{[O=C(C[*:3])[*:2]].F.[meF].[CCCC[C@@H](C(=O)[*:2])N(C)[*:1]].[dD].D.V.[meF].Y.[Sar].W.Y.L.C.G.[am]}$PEPTIDE1,PEPTIDE1,1:R3-14:R3$$$V2.0)	8.17 to 9.41	7.14 to 8.32		
CCCC[C@H]1C(=O)N(C)CC(=O)N[C@@H](CC(=O)O)C(=O)N[C@@H](C(C)C)C(=O)N(C)[C@@H](Cc2ccccc2)C(=O)N[C@@H](Cc2ccc(O)cc2)C(=O)N(C)CC(=O)N[C@@H](Cc2c[nH]c3ccccc23)C(=O)N[C@@H](Cc2nc3ccccc3s2)C(=O)N[C@@H](CC(C)C)C(=O)N[C@H](C(=O)NCC(N)=O)CSCC(=O)N[C@@H](Cc2ccccc2)C(=O)N(C)[C@@H](Cc2ccccc2)C(=O)N1C [Example 3558] ({CH2CO}-F[NMeF][NMeNle][Sar]DV[NMeF]Y[Sar]W[Ala(benzothiazol-2-yl)]LCG-NH2; thioether N-13)	< 7.52	< 7.13		

Now from value to compound:

pIC50 (Human PD-L1/PD-1; [2])	pIC50 [1, 3]	pIC50 (Human PD-L1/PD-1; [4])	pIC50 [1, 5]	SMILES
< 7.52	< 7.13			CCCC[C@H]1C(=O)N(C)CC(=O)N[C@@H](CC(=O)O)C(=O)N[C@@H](C(C)C)C(=O)N(C)[C@@H](Cc2ccccc2)C(=O)N[C@@H](Cc2ccc(O)cc2)C(=O)N(C)CC(=O)N[C@@H](Cc2c[nH]c3ccccc23)C(=O)N[C@@H](Cc2ccccc2)C(=O)N[C@@H](CC(C)C)C(=O)N[C@H](C(=O)NCC(N)=O)CSCC(=O)N[C@@H](Cc2ccccc2)C(=O)N(C)[C@@H](Cc2ccccc2)C(=O)N1C [Example 3540] (HELM PEPTIDE1{[O=C(C[*:3])[*:2]].F.[meF].[CCCC[C@@H](C(=O)[*:2])N(C)[*:1]].[Sar].D.V.[meF].Y.[Sar].W.F.L.C.G.[am]}$PEPTIDE1,PEPTIDE1,1:R3-14:R3$$$V2.0)
< 7.52	< 7.13			CCCC[C@H]1C(=O)N(C)CC(=O)N[C@@H](CC(=O)O)C(=O)N[C@@H](C(C)C)C(=O)N(C)[C@@H](Cc2ccccc2)C(=O)N[C@@H](Cc2ccc(O)cc2)C(=O)N(C)CC(=O)N[C@@H](Cc2ccc(-c3ccccc3)cc2)C(=O)N[C@@H](Cc2ccc(O)cc2)C(=O)N[C@@H](CC(C)C)C(=O)N[C@H](C(=O)NCC(N)=O)CSCC(=O)N[C@@H](Cc2ccccc2)C(=O)N(C)[C@@H](Cc2ccccc2)C(=O)N1C [Example 3545] ({CH2CO}-F[NMeF][NMeNle][Sar]DV[NMeF]Y[Sar][Bip]YLCG-NH2; thioether N-13)
< 7.52	< 7.13			CCCC[C@H]1C(=O)N(C)CC(=O)N[C@@H](CC(=O)O)C(=O)N[C@@H](C(C)C)C(=O)N(C)[C@@H](Cc2ccccc2)C(=O)N[C@@H](Cc2ccc(O)cc2)C(=O)N(C)CC(=O)N[C@@H](Cc2ccc(Cl)cc2)C(=O)N[C@@H](Cc2ccc(O)cc2)C(=O)N[C@@H](CC(C)C)C(=O)N[C@H](C(=O)NCC(N)=O)CSCC(=O)N[C@@H](Cc2ccccc2)C(=O)N(C)[C@@H](Cc2ccccc2)C(=O)N1C [Example 3546] ({CH2CO}-F[NMeF][NMeNle][Sar]DV[NMeF]Y[Sar][Phe(4-Cl)]YLCG-NH2; thioether N-13)
< 7.52	< 7.13			CCCC[C@H]1C(=O)N(C)CC(=O)N[C@@H](CC(=O)O)C(=O)N[C@@H](C(C)C)C(=O)N(C)[C@@H](Cc2ccccc2)C(=O)N[C@@H](Cc2ccc(O)cc2)C(=O)N(C)CC(=O)N[C@@H](Cc2cccc(OC)c2)C(=O)N[C@@H](Cc2ccc(O)cc2)C(=O)N[C@@H](CC(C)C)C(=O)N[C@H](C(=O)NCC(N)=O)CSCC(=O)N[C@@H](Cc2ccccc2)C(=O)N(C)[C@@H](Cc2ccccc2)C(=O)N1C [Example 3548] ({CH2CO}-F[NMeF][NMeNle][Sar]DV[NMeF]Y[Sar][Phe(3-OMe)]YLCG-NH2; thioether N-13)
		6.56	6.14	CCCC[C@H]1C(=O)N(C)CC(=O)N[C@@H](CC(=O)O)C(=O)N[C@@H](C(C)C)C(=O)N(C)[C@@H](Cc2ccccc2)C(=O)N[C@@H](Cc2ccc(O)cc2)C(=O)N(C)CC(=O)N[C@@H](Cc2ccc(Cl)cc2Cl)C(=O)N[C@@H](Cc2ccc(O)cc2)C(=O)N[C@@H](CC(C)C)C(=O)N[C@H](C(=O)NCC(N)=O)CSCC(=O)N[C@@H](Cc2ccccc2)C(=O)N(C)[C@@H](Cc2ccccc2)C(=O)N1C [Example 3549] ({CH2CO}-F[NMeF][NMeNle][Sar]DV[NMeF]Y[Sar][Phe(2,4-Cl2)]YLCG-NH2; thioether N-13)
		7.39	6.83	CCCC[C@H]1C(=O)N(C)CC(=O)N[C@@H](CC(=O)O)C(=O)N[C@@H](C(C)C)C(=O)N(C)[C@@H](Cc2ccccc2)C(=O)N[C@@H](Cc2ccc(O)cc2)C(=O)N(C)CC(=O)N[C@@H](Cc2cccc(C(F)(F)F)c2)C(=O)N[C@@H](Cc2ccc(O)cc2)C(=O)N[C@@H](CC(C)C)C(=O)N[C@H](C(=O)NCC(N)=O)CSCC(=O)N[C@@H](Cc2ccccc2)C(=O)N(C)[C@@H](Cc2ccccc2)C(=O)N1C [Example 3550] ({CH2CO}-F[NMeF][NMeNle][Sar]DV[NMeF]Y[Sar][Phe(3-CF3)]YLCG-NH2; thioether N-13)
< 7.52	< 7.13			CCCC[C@H]1C(=O)N(C)CC(=O)N[C@@H](CC(=O)O)C(=O)N[C@@H](C(C)C)C(=O)N(C)[C@@H](Cc2ccccc2)C(=O)N[C@@H](Cc2ccc(O)cc2)C(=O)N(C)CC(=O)N[C@@H](Cc2nc3ccccc3s2)C(=O)N[C@@H](Cc2ccc(O)cc2)C(=O)N[C@@H](CC(C)C)C(=O)N[C@H](C(=O)NCC(N)=O)CSCC(=O)N[C@@H](Cc2ccccc2)C(=O)N(C)[C@@H](Cc2ccccc2)C(=O)N1C [Example 3557] ({CH2CO}-F[NMeF][NMeNle][Sar]DV[NMeF]Y[Sar][Ala(benzothiazol-2-yl)]YLCG-NH2; thioether N-13)
